Data reported in patent US20100273748A1, “ANTIMICROBIAL THERAPY” (priority 2006, published 2010).

Assays:
cathelicidin = assay: qPCR of cathelicidin mRNA in cultured keratinocytes; format: cell-based, human; details: for increase of cathelicidin mRNA: 24 hours
Description: (§1) Cell culture and stimuli. Human keratinocytes were grown in serum-free EpiLife® cell culture media (Cascade Biologics; Portland, Oreg.) containing 0.06 mM Ca2+ and 1× EpiLife® defined growth supplement (EDGS) at 37° C. under standard tissue culture conditions. Stock cultures were maintained for up to five passages in this media with the addition of 50 U/mL penicillin and 50 μg/mL streptomycin. HaCaT keratinocytes were cultured in DMEM (Sigma, St. Louis, Mo.) with 10% FCS. Cells at 50-70% confluence were stimulated in fresh medium after preincubation with 1,25(OH)2 vitamin D3 (1,25D3; 0.1-100 nM, 4-24 h; Sigma). Alternatively, NHEK were stimulated in the presence of 1,25D3 (0.1-100 nM). Stimuli included TLR2,6 ligands Malp-2 (0.001-0.5 μg/ml; Alexis Biochemicals, Carlsbad, Calif.), FSL-1 (1-2 μg/ml, Invivogen, San Diego, Calif.) and zymosan (50 μg/ml; Invivogen), as well as flagellin (50 ng/ml; Alexis), LPS (1 μg/ml; Sigma), lipoteichoic acid (LTA; 10 μg/ml; Sigma), 19 kDA lipopeptide (10 μg/ml, a kind gift from S. Krutzik, Division of Dermatology, UCLA), CpG DNA (10 μg/ml; Sigma), Ca2+ (1.7 mM), LPS (1 μg/ml; Sigma), TNFα (20 ng/ml; Chemicon Temecula, Calif.) and TGFβ1 (0.1-1 μg/ml; R&D Systems, Minneapolis, Minn.). A TLR2 blocking antibody (αTLR2; clone TL2.1, 5 μg/ml, eBioscience, San Diego, Calif.) was utilized to investigate the role of TLR2 signaling. Furthermore, keratinocytes were pretreated with a vitamin D receptor antagonist (VDR-antagonist ZK159222 Schering AG; 10^-7M) or the CYP inhibitor itraconazole (ITRA; 10^-7M) before stimulation with TGFβ in the presence of 25OH vitamin D3 (25D3, 10 nM, Sigma).
(§2) Real-time RT-PCR (qPCR). RNA was extracted from cells, epidermal constructs or tissue using Trizol® and 1 μg RNA was reverse transcribed using iScript® (BioRad, Hercules, Calif.). Expression of cathelicidin and GAPDH was analysed by real-time RT-PCR. Predeveloped Taqman® assay probes (ABI, Foster City, Calif.) were used for the analyses of the expression of CYP24A1 (24-hydroxylase), CYP27B1 (1α-hydroxylase), CD14, CD36, TLR1, TLR2, TLR4, TLR6 and murine CD14. All analyses were performed in triplicate from 2-5 independent experiments in an ABI Prism® 7000 Sequence Detection System. Fold induction relative to the vehicle treated control in in vitro experiments was calculated using the comparative Ct method, where ΔΔCt is ΔCt(stimulant)-ΔCt(vehicle), ΔCt is Ct(gene)-Ct(GAPDH) and Ct is the cycle at which an arbitrary detection threshold is crossed. For quantification of transcript abundance in tissue samples target gene expression was normalized to GAPDH and compared to non-treated or non-injured skin.

CD14 = assay: qPCR of CD14 mRNA in cultured keratinocytes; format: cell-based, human; details: 24 hours
Description: as §1, §2

TLR2 = assay: qPCR of TLR2 mRNA in cultured keratinocytes; format: cell-based, human; details: 1,25D3 100 nM, keratinocyte monolayers, 24 hours
Description: as §1, §2

S. aureus DmprF = assay: Antimicrobial activity of keratinocyte lysates (bacterial growth, OD600); format: cell-based, Staphylococcus aureus
Description: Panel a: NHEKs were stimulated with 1,25D3 (10^−9-10^−7 M) in the presence of the HDAC inhibitor butyrate (BUT; 2 mM) for 24 hours. mRNA abundance was determined by real-time qPCR for cathelicidin and glyceraldehyde-3-phosphate dehydrogenase and normalized to vehicle-treated controls. […] Data shown are means (7SD) of the results from a single stimulation experiment performed in triplicates and are representative of at least three independent experiments (**P<0.01; ***P<0.001; two-way analysis of variance). Panel b: The HDAC inhibitor TSA (200 ng ml^−1) induces cathelicidin in the presence of 1,25D3 (10^−8M). Expression of cathelicidin is dependent on a functional VDR, as pretreatment with the VDR antagonist ZK159222 (10^−7 M) inhibits induction of cathelicidin with BUT (2 mM) in the presence of 1,25D3 (10^−8 M) after 24 hours. Expression of cathelicidin was determined by qPCR as described in Panel a. (*P<0.05; Student's t-test). Panel c: Increased transcript correlates with enhanced cathelicidin protein expression after HDAC inhibitor and 1,25D3 stimulation. NHEKs grown on chamber slides were stimulated with the vehicle, 1,25D3 (10^−8M), BUT (2 mM), or the combination for 24 hours. Cells were stained with a polyclonal anti-LL-37 antibody (followed by an FITC-coupled secondary antibody) and nuclei detected with 4,6-diamidino-2-phenylindole (Bar=30 μM). […] NHEKs were stimulated with 1,25D3 (10^−8M) in combination with the HDAC inhibitor BUT (2 mM) for 24 hours, cells harvested and cell lysates co-incubated with S. aureus DmprF, and bacterial growth monitored over time to determine antimicrobial activity. Media not containing cell lysates or containing cell lysates from unstimulated cells were used as controls.

TLR2 protein = assay: Western blot of keratinocyte extracts; format: cell-based, human; details: 1,25D3 100 nM, monolayer keratinocyte extracts
Description: Western Blot. Primary keratinocytes were stimulated with 1,25D3 (100 nM) or the vehicle for 24 hours and subsequently lysed in ice-cold lysis buffer (1% Triton-X in PBS containing proteinase inhibitors). After centrifugation, equal amounts of protein were mixed with loading buffer (0.25M Tris HCL, 10% SDS, 10% glycerol, 5% β-mercaptoethanol) and loaded onto a 10% Tris-Tricine gel (GeneMate, Kaysville, Utah). After separation, proteins were blotted onto a PVDF membrane (Millipore, Billerica, Mass.) and blocked in 5% milk (BioRad) in TBS 0.1% Tween20 for 1 h at RT. After washings in TBS 0.1% Tween20, membranes were stained with a rabbit polyclonal anti-CD14 (Abcam, Cambridge, Mass.) or an anti TLR2 antibody (eBioscience), washed again in TBS 0.1% Tween20 and reprobed with a HRP-coupled goat anti-rabbit antibody (DakoCytomation, Glostrup, Denmark). Stained protein was visualized using the Western Lightning® system (Perkin Elmer, Boston, Mass.).

C=C1/C(=C\C=C2/CCC[C@]3(C)[C@@H]([C@H](C)CCCC(C)(C)O)CC[C@@H]23)C[C@@H](O)C[C@@H]1O [1,25D3, 1,25(OH)2 vitamin D3]
increase of cathelicidin expression over cells without 1,25D3 (cathelicidin; 1,25D3 0.1 nM, then Malp-2, dose dependent): up to 60 fold
increase of cathelicidin mRNA (cathelicidin; 10^−7 M 1,25D3 in the absence of butyrate): about 75 fold
increase of cathelicidin mRNA (cathelicidin; 10^−7 M 1,25D3 in the presence of butyrate (2 mM)): over 200 fold
CD14 mRNA expression (CD14; 1,25D3 100 nM, keratinocyte monolayers): increases expression
CD14 transcript abundance (CD14; 1,25D3 10^−8M): strongly upregulated
TLR2 mRNA expression (TLR2): increases expression
suppression of S. aureus growth by protein extracts of treated cells (S. aureus DmprF; cells treated with 1,25D3 (10^−8M) and butyrate (2 mM), 24 hours): maximal ability to suppress the growth
antimicrobial activity of the agents themselves (S. aureus DmprF; without cell lysate): did not show antimicrobial activity
TLR2 protein expression (Western Blot) (TLR2 protein): increases expression
